Experiment: Dissociation constant, pKa of compound by capillary electrophoresis
Type: physicochemical

CC#C[C@]1(c2cc(NC(=O)c3cnc(OCF)cn3)ccc2F)N=C(N)OC[C@@H]1F
pKa: 6.5

CC#C[C@]1(c2cc(NC(=O)c3cnc(OCF)cn3)ccc2F)N=C(N)OCC12CC(F)(F)C2
pKa: 7.5

CC#C[C@@]1(c2cc(NC(=O)c3cnc(OCF)cn3)ccc2F)CCOC(N)=N1
pKa: 8.4

CC#C[C@@]1(c2cc(NC(=O)c3ccc(C#N)cn3)ccc2F)CCOC(N)=N1
pKa: 8.3

Reference: ChEMBL document CHEMBL4819052, “Structure-Based Approaches to Improving Selectivity through Utilizing Explicit Water Molecules: Discovery of Selective β-Secretase (BACE1) Inhibitors over BACE2” (J Med Chem, 2021)
